Data reported in the supplement of paper PMC5412046.
Structures can show the parent of a compound that is named as a salt.

Columns and labels:
SB.mhdgc-1 [1] = assay: area under the dose-response curve of % viability (trapezoidal, 11 doses) (% viability x log10 concentration); higher = less cytotoxic; settings: SB.mhdgc-1 (hereditary c.1380delA CDH1 gastric cancer)
Method in brief: (§1)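 Each entry is viability relative to DMSO, given either at the highest concentration tested or as a trapezoidal area under the curve. Gastric cancer cells from hereditary or sporadic patients (500 cells in 5 μL medium per 1536 well) received compound in DMSO at 11 threefold-diluted concentrations, 23 nL by pintool. Luminescence from CellTiter-Glo was read after 48 h.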

SB.msgc-1 [2] = assay: as above; settings: SB.msgc-1 (sporadic gastric cancer)
Method in brief: as §1

SB.mhdgc-1 [3] = assay: viability at highest tested concentration (MAXR) relative to DMSO; higher = less cytotoxic; settings: SB.mhdgc-1 (hereditary c.1380delA CDH1 gastric cancer)
Method in brief: as §1

SB.msgc-1 [4] = assay: as above; settings: SB.msgc-1 (sporadic gastric cancer)
Method in brief: as §1

| Structure (SMILES) | area under the dose-response curve (SB.mhdgc-1 [1]) | area under the dose-response curve (SB.msgc-1 [2]) | viability (SB.mhdgc-1 [3]) | viability (SB.msgc-1 [4]) |
| --- | --- | --- | --- | --- |
| NC(CO)(CO)CCc1ccc(Sc2cccc(OCc3ccccc3)c2)cc1Cl [KRP 203] (top concentration 46.0829 µM) | 453 | 486 | 4.12% | 2.25% |
| C[C@@]12O[C@@H](C[C@]1(O)CO)n1c3ccccc3c3c4c(c5c6ccccc6n2c5c31)CNC4=O [Lestaurtinib] (top concentration 46.0829 µM) | 388 | 428 | 37.8% | 31.1% |
| COCCNCCCn1c(C(=O)CF)c(-c2ccc(C)cc2)c2c(N)ncnc21 [FMK-MEA] (top concentration 46.0829 µM) | 552 | 548 | 96.4% | 74.9% |
| CC(C)(C)OC(=O)Nc1ccc(-c2cc(C(=O)NCCCCCCC(=O)NO)no2)cc1 [ISOX] (top concentration 46.0829 µM) | 438 | 351 | 53.1% | 3.64% |
| NC/1=N/C(=O)N/C=C1F [Flucytosine] (top concentration 46.0829 µM) | 495 | 480 | 50.3% | 68.6% |
| Cn1c(=O)c2[nH]cnc2n(C)c1=O [Theophyllamine] (top concentration 46.0829 µM) | 560 | 614 | 87.8% | 123% |
| COC1=C2C[C@@H](C)C[C@H](OC)[C@H](O)[C@@H](C)/C=C(\C)[C@H](OC(N)=O)[C@@H](OC)/C=C/C=C(\C)C(=O)NC(=CC1=O)C2=O [Geldanamycin] (top concentration 46.0829 µM) | 374 | 306 | 1.89% | 0.593% |
| C[Se]CC[C@H](N)C(=O)O [L-selenomethionine] (top concentration 92.1659 µM) | 494 | 312 | 92.5% | 70.2% |
| c1cncc(CN2CCC(n3ncc4c(N5CCOCC5)nc(-c5ccc6[nH]ccc6c5)nc43)CC2)c1 [WAY-600] (top concentration 46.0829 µM) | 407 | 445 | 29.4% | 27.2% |
| CCOc1cc2ncc(C#N)c(Nc3ccc(F)c(Cl)c3)c2cc1NC(=O)/C=C/CN(C)C [Pelitinib] (top concentration 46.0829 µM) | 344 | 300 | 2.8% | 4.46% |
| O=C(O)CCCCC(CCSCc1ccccc1)SCc1ccccc1 (configuration not stated) [CPI-613] (top concentration 46.0829 µM) | 525 | 512 | 81.6% | 67.5% |
| CN1\N=C(N)/C2=C[N]([C@@H]3O[C@H](CO[P](O)(O)=O)[C@@H](O)[C@H]3O)C4=C2C1=NC=N4 [Triciribine phosphate] (top concentration 46.0829 µM) | 477 | 369 | 55.1% | 44.5% |
| C[C@@H]1CC[C@@]2(CC[C@]3(C)\C(=C/C[C@@H]4[C@@]5(C)CC[C@H](O)C(C)(C)[C@@H]5CC[C@@]34C)[C@@H]2[C@H]1C)C(O)=O [Ursolic acid] (top concentration 92.1659 µM) | 478 | 495 | 3.71% | 4.45% |
| CC(=O)OCC(CCn1cnc2cnc(N)nc21)COC(C)=O [Famciclovir] (top concentration 46.0829 µM) | 546 | 553 | 121% | 111% |
| COc1ccc(C(CN(C)C)C2(O)CCCCC2)cc1 (configuration not stated) [Venlafaxine hydrochloride] (top concentration 46.0829 µM) | 519 | 516 | 90.6% | 81.9% |
| NC(=O)c1ccc(-c2nc(-c3ccc4c(c3)OCO4)c(-c3ccccn3)[nH]2)cc1 (top concentration 46.0829 µM) | 585 | 496 | 111% | 83.7% |
| O=C([O-])[C@H](CC(=O)N1C[C@H]2CCCC[C@H]2C1)Cc1ccccc1 [Mitiglinide calcium hydrate] (top concentration 46.0829 µM) | 547 | 549 | 114% | 109% |
| O=C(/C=C/c1ccc(/C=C/C(=O)Nc2ccc(C3=NCCN3)cc2)cc1)Nc1ccc(C2=NCCN2)cc1 [GW 4869] (top concentration 46.0829 µM) | 536 | 509 | 121% | 101% |
| CN(C)CC[C@H](CSc1ccccc1)Nc1ccc([S+](=O)([O-])NC(=O)c2ccc(N3CCN(Cc4ccccc4-c4ccc(Cl)cc4)CC3)cc2)cc1[N+](=O)[O-] [ABT-737] (top concentration 46.0829 µM) | 415 | 493 | 3.18% | 53.2% |
| C[S+](=O)([O-])Oc1ccc2c(NC(N)=O)c(C(=O)c3ccc(Cl)cc3Cl)oc2c1 [Lirimilast] (top concentration 46.0829 µM) | 461 | 424 | 66.1% | 8% |
| Clc1ccc(CCC(Cn2ccnc2)Sc2c(Cl)cccc2Cl)cc1 (configuration not stated) [Butoconazole nitrate] (top concentration 46.0829 µM) | 426 | 456 | 24.9% | 31.7% |
| CCCN[S+](=O)([O-])Nc1ncnc(OCCOc2ncc(Br)cn2)c1-c1ccc(Br)cc1 [Macitentan] (top concentration 46.0829 µM) | 577 | 594 | 121% | 120% |
| CCCCc1ccc(N[S+](=O)([O-])c2ccc(C)c(C(=O)N3CCN(c4cccc(C)c4C)CC3)c2)cc1 [IDH-001] (top concentration 46.0829 µM) | 571 | 511 | 72.9% | 37.7% |
